Results published in patent publication US20110306597A1, “Nicotinamide Derivatives” (priority 2008, published 2011).

Target: human recombinant H-PGDS (Homo sapiens, UniProt O60760)
Test: Fluorescence Intensity h-PGDS TBA Enzyme Assay
Type: biochemical
Details: 1:175,000 human recombinant H-PGDS, highest inhibitor concentration typically 1 μM
How it was run: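 Recombinant human H-PGDS preincubated 10 min at room temperature with inhibitor in 100 mM Tris pH 8.0, 100 μM MgCl2, 2.5 mM glutathione, 0.5% DMSO; 5.0 μM PGH2 added, stopped after 42 s with FeCl2/citric acid. Remaining PGH2 measured as MDA–TBA fluorescence (ex 530/em 565 nm); IC50 by 4-parameter fit, 11 concentrations.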

Sequence of human recombinant H-PGDS (O60760 whole entry): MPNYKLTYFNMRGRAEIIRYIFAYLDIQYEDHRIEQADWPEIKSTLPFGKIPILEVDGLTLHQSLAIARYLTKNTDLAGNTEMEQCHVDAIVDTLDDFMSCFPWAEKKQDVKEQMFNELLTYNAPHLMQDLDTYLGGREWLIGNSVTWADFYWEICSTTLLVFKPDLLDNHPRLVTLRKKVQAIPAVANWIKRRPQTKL

| Compound | IC50 |
| --- | --- |
| CCOC(=O)CC(NC(=O)c1ccc(-c2ccccc2)nc1)c1ccc(OC)cc1 (centres unmarked) [Example 362, Ethyl 3-(4-methoxyphenyl)-3-{[(6-phenylpyridin-3-yl)carbonyl]amino}propanoate] | 0.012 µM |
| O=C(Nc1cccnc1)c1ccc(-c2ccccc2)nc1 [Example 354, 6-Phenyl-N-pyridin-3-ylnicotinamide] | 0.00166 µM |
| O=C(NCCN1CCCCC1=O)c1ccc(-c2ccccc2)nc1 [Example 373, N-[2-(2-Oxopiperidin-1-yl)ethyl]-6-phenylnicotinamide] | 0.0397 µM |
| CCOC(=O)CC(NC(=O)c1ccc(-c2ccccc2)nc1)c1ccccc1Cl (centres unmarked) [Example 384, ethyl 3-(2-Chlorophenyl)-3-{[(6-phenylpyridin-3-yl)carbonyl]amino}propanoate] | 0.0396 µM |
| Cc1ccc(CNC(=O)c2ccc(-c3ccc(F)cc3)nc2)cc1 [Example 480, 6-(4-Fluorophenyl)-N-(4-methylbenzyl)nicotinamide] | 0.327 µM |
| CC(C)(C)C(=O)CNC(=O)c1ccc(-c2cccc(F)c2)nc1 [Example 108, N-(3,3-Dimethyl-2-oxobutyl)-6-(3-fluorophenyl)nicotinamide] | 0.0296 µM |
| CNS(=O)(=O)c1ccc(CNC(=O)c2ccc(-c3ccccc3)nc2)cc1 [Example 397, N-{4-[(Methylamino)sulfonyl]benzyl}-6-phenylnicotinamide] | 0.0188 µM |
| COC(=O)CNC(=O)[C@H](C)NC(=O)c1ccc(-c2cccc(C)c2)nc1 [Example 229, Methyl N-{[6-(3-methylphenyl)pyridin-3-yl]carbonyl}-L-alanylglycinate] | 0.125 µM |
| COc1cccc(-c2ccc(C(=O)NC(C)C)cn2)c1 [Example 297, N-Isopropyl-6-(3-methoxyphenyl)nicotinamide] | 0.351 µM |
| Cc1cccc(-c2ccc(C(=O)NCc3ccc(S(C)(=O)=O)cc3)cn2)c1 [Example 247, 6-(3-Methylphenyl)-N-[4-(methylsulfonyl)benzyl] nicotinamide] | 0.0181 µM |
| Cc1cccc(-c2ccc(C(=O)NCCN3CCCCC3)cn2)c1 [Example 225, 6-(3-Methylphenyl)-N-(2-piperidin-1-ylethyl)nicotinamide] | 0.265 µM |
| O=C(Nc1cccn(Cc2ccccc2)c1=O)c1ccc(-c2ccccc2)nc1 [Example 402, N-(1-Benzyl-2-oxo-1,2-dihydropyridin-3-yl)-6-phenylnicotinamide] | 0.008 µM |
| CN(C)C(=O)CNC(=O)c1ccc(-c2cccc(F)c2)nc1 [Example 161, N-[2-(dimethylamino)-2-oxoethyl]-6-(3-fluorophenyl)nicotinamide] | 0.088 µM |
| Cc1cc(=O)[nH]c(N2CCCC(CNC(=O)c3ccc(-c4cccc(F)c4)nc3)C2)n1 (centres unmarked) [Example 112, 6-(3-Fluorophenyl)-N-{[1-(4-methyl-6-oxo-1,6-dihydropyrimidin-2-yl)piperidin-3-yl]methyl}nicotinamide] | 0.0292 µM |
| O=C(NCCC1CCCCO1)c1ccc(-c2cccc(F)c2)nc1 (centres unmarked) [Example 172, 6-(3-Ffluorophenyl)-N-[2-(tetrahydro-2H-pyran-2-yl)ethyl]nicotinamide] | 0.00574 µM |
| N-[2-(Benzyloxy)ethyl]-5-chloro-6-(3-fluorophenyl)nicotinamide [Example 555] | 0.174 µM |
| COCCN1CC(CNC(=O)c2ccc(-c3cccc(F)c3)nc2)CC1=O (centres unmarked) [Example 20, 6-(3-Fluorophenyl)-N-{[1-(2-methoxyethyl)-5-oxopyrrolidin-3-yl]methyl}nicotinamide] | 0.0351 µM |
| N-(4-Fluorophenyl)-6-(3- methoxyphenyl)nicotinamide [Example 307] | 0.187 µM |
| CN1CCc2nc(N3CCC(CNC(=O)c4ccc(-c5cccc(F)c5)nc4)CC3)ncc2C1 [Example 10, 6-(3-Fluorophenyl)-N-{[1-(6-methyl-5,6,7,8-tetrahydropyrido[4,3-d]pyrimidin-2-yl)piperidin-4-yl]methyl}nicotinamide] | 0.0269 µM |
| CC(NC(=O)c1ccc(-c2ccc(F)cc2)nc1)c1ccccc1 (centres unmarked) [Example 265, 6-(4-Fluorophenyl)-N-(1-phenylethyl)nicotinamide] | 0.152 µM |
| COC(=O)CC(NC(=O)c1ccc(-c2cccc(OC)c2)nc1)c1cccnc1 (centres unmarked) [Example 337, Methyl 3-({[6-(3-methoxyphenyl)pyridin-3-yl]carbonyl}amino)-3-pyridin-3-ylpropanoate] | 0.396 µM |
| CCOC(=O)CC(NC(=O)c1ccc(-c2cccc(OC)c2)nc1)c1ccccc1 (centres unmarked) [Example 272, Ethyl 3-({[6-(3-methoxyphenyl)pyridin-3-yl]carbonyl}amino)-3-phenylpropanoate] | 0.474 µM |
| COCCN1CCC2(CC1)CC(NC(=O)c1ccc(-c3cccc(F)c3)nc1)CO2 (centres unmarked) [Example 142, 6-(3-Fluorophenyl)-N-[8-(2-methoxyethyl)-1-oxa-8-azaspiro[4.5]dec-3-yl]nicotinamide] | 0.0252 µM |
| COC(=O)CNC(=O)c1ccc(-c2cccc(F)c2)nc1 [Example 173, Methyl N-{[6-(3-fluorophenyl)pyridin-3-yl]carbonyl}glycinate] | 0.082 µM |

| Compound | IC50 |
| --- | --- |
| O=C(NC1CCN(Cc2ccc(Cl)cc2)C1=O)c1ccc(-c2ccccc2)nc1 (centres unmarked) [Example 377, N-[1-(4-Chlorobenzyl)-2-oxopyrrolidin-3-yl]-6-phenylnicotinamide] | 0.0112 µM |
| CCN1CCC[C@@H]1CNC(=O)c1ccc(-c2cccc(F)c2)nc1 [Example 74, N-{[(2R)-1-Ethylpyrrolidin-2-yl]methyl}-6-(3-fluorophenyl) nicotinamide] | 0.0423 µM |
| O=C(NCC1C(=O)Nc2ccccc21)c1ccc(-c2cc(F)cc(F)c2)nc1 (centres unmarked) [Example 568, 6-(3,5-Difluorophenyl)-N-[(2-oxo-2,3-dihydro-1H-indol-3-yl)methyl]nicotinamide] | 0.00263 µM |
| Cc1cccc(-c2ccc(C(=O)NCCc3ccncc3)cn2)c1 [Example 240, 6-(3-Methylphenyl)-N-(2-pyridin-4-ylethyl)nicotinamide] | 0.0107 µM |
| O=C(NCC1CCCN(C2CCOCC2)C1)c1ccc(-c2cccc(F)c2)nc1 (centres unmarked) [Example 110, 6-(3-Fluorophenyl)-N-{[1-(tetrahydro-2H-pyran-4-yl)piperidin-3-yl]methyl}nicotinamide] | 0.0871 µM |
| CCOC(=O)C(CNC(=O)c1ccc(-c2ccc(F)cc2)nc1)C1CCCC1 (centres unmarked) [Example 260, Ethyl 2-cyclopentyl-3-({[6-(4-fluorophenyl)pyridin-3-yl]carbonyl}amino)propanoate] | 0.316 µM |
| CCn1cc(-c2nnc(CCNC(=O)c3ccc(-c4cccc(F)c4)nc3)o2)cn1 [Example 45, N-{2-[5-(1-Ethyl-1H-pyrazol-4-yl)-1,3,4-oxadiazol-2-yl]ethyl}-6-(3-fluorophenyl)nicotinamide] | 0.0307 µM |
| O=C(NC1CCCOC1)c1ccc(-c2cccc(F)c2)nc1 (centres unmarked) [Example 63, 6-(3-Fluorophenyl)-N-(tetrahydro-2H-pyran-3-yl)nicotinamide] | 0.00532 µM |
| CCC(C)C(CO)NC(=O)c1ccc(-c2cccc(F)c2)nc1 (centres unmarked) [Example 537, 6-(3-Fluorophenyl)-N-[1-(hydroxymethyl)-2-methylbutyl]nicotinamide] | 0.0612 µM |
| COC(=O)CCNC(=O)c1ccc(-c2ccc(F)cc2)nc1 [Example 494, Methyl N-{[6-(4-fluorophenyl)pyridin-3-yl]carbonyl}-beta-alaninate] | 0.758 µM |
| CC(C)(C)OCCNC(=O)c1ccc(-c2cccc(F)c2)nc1 [Example 134, N-(2-tert-Butoxyethyl)-6-(3-fluorophenyl)nicotinamide] | 0.0477 µM |
| COc1ccc(CNC(=O)c2ccc(-c3cccc(F)c3)nc2)cc1 [Example 414, 6-(3-Fluorophenyl)-N-(4-methoxybenzyl)nicotinamide] | 0.0353 µM |
| Cc1ccc(CNC(=O)c2ccc(-c3ccccc3)nc2)cc1 [Example 365, N-(4-Methylbenzyl)-6-phenylnicotinamide] | 0.0042 µM |
| CCOC(=O)CC(NC(=O)c1ccc(-c2ccccc2)nc1)c1ccc(Cl)cc1 (centres unmarked) [Example 401, Ethyl 3-(4-chlorophenyl)-3-{[(6-phenylpyridin-3-yl)carbonyl]amino}propanoate] | 0.0311 µM |
| Cc1cc(C(F)(F)F)nc(CNC(=O)c2ccc(-c3cccc(F)c3)nc2)n1 [Example 98, 6-(3-Fluorophenyl)-N-{[4-methyl-6-(trifluoromethyl)pyrimidin-2-yl]methyl}nicotinamide] | 0.146 µM |
| O=C(NCCC1CCC(=O)N1Cc1ccccc1)c1ccc(-c2cccc(F)c2)nc1 (centres unmarked) [Example 58, N-[2-(1-Benzyl-5-oxopyrrolidin-2-yl)ethyl]-6-(3-fluorophenyl)nicotinamide] | 0.00946 µM |
| COc1ccccc1-c1nnc(CNC(=O)c2ccc(-c3cccc(F)c3)nc2)o1 [Example 439, 6-(3-Fluorophenyl)-N-{[5-(2-methoxyphenyl)-1,3,4-oxadiazol-2-yl]methyl}nicotinamide] | 0.02 µM |
| O=C(NCc1ccccc1)c1ccc(-c2cccc(F)c2)nc1 [Example 432, N-Benzyl-6-(3-fluorophenyl)nicotinamide] | 0.0149 µM |
| O=C(NCCc1cn2cccnc2n1)c1ccc(-c2cccc(F)c2)nc1 [Example 6, 6-(3-Fluorophenyl)-N-(2-imidazo[1,2-a]pyrimidin-2-ylethyl)nicotinamide] | 0.013 µM |
| CCOCC(O)CNC(=O)c1ccc(-c2cccc(F)c2)nc1 (centres unmarked) [Example 34, N-(3-Ethoxy-2-hydroxypropyl)-6-(3-fluorophenyl)nicotinamide] | 0.0734 µM |
| Cc1cccc(-c2ccc(C(=O)NCc3ccccc3)cn2)c1 [Example 310, N-Benzyl-6-(3-methylphenyl)nicotinamide] | 0.0194 µM |
| CC(Cn1cccn1)NC(=O)c1ccc(-c2cccc(F)c2)nc1 (centres unmarked) [Example 126, 6-(3-Fluorophenyl)-N-[1-methyl-2-(1H-pyrazol-1-yl)ethyl]nicotinamide] | 0.0338 µM |
| O=C(NCc1cccc(F)c1)c1ccc(-c2cccc(F)c2)nc1 [Example 405, N-(3-Fluorobenzyl)-6-(3-fluorophenyl)nicotinamide] | 0.211 µM |
